According to patent US20240158446A1, “CYCLIC COMPOUND HAVING SELECTIVE INHIBITORY ACTION ON KRAS OVER HRAS AND NRAS” (CHUGAI SEIYAKU KABUSHIKI KAISHA, priority 2021, published 2024):

Columns and labels:
[1] = molecular target: GDP-bound NRAS wild-type protein (Homo sapiens, UniProt P01111); experiment: Binding to NRAS by surface plasmon resonance (SPR), Single Cycle Kinetics; conditions: SPR, GDP-bound NRAS wild-type protein vs GDP-bound KRAS wild-type protein
[2] = system: human lung cancer strain NCI-H441;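 also: cell proliferation inhibition after four days measured by CellTiter-Glo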
[3] = molecular target: GDP-bound KRAS wild-type protein (Homo sapiens, UniProt P01116); experiment: Binding to KRAS by surface plasmon resonance (SPR), Single Cycle Kinetics; conditions: SPR, Single Cycle Kinetics, GDP-bound KRAS wild-type protein; read-out: KRAS KD
Chain of GDP-bound KRAS wild-type protein (P01116 whole entry): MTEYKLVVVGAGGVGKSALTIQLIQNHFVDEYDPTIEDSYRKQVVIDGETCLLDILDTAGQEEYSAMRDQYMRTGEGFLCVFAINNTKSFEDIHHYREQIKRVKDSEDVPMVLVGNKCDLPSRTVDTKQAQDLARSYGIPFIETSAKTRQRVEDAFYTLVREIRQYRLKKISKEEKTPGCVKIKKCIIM

[4] = molecular target: GDP-bound HRAS wild-type protein (Homo sapiens, UniProt P01112); experiment: Binding to HRAS by surface plasmon resonance (SPR), Single Cycle Kinetics; conditions: SPR, GDP-bound HRAS wild-type protein vs GDP-bound KRAS wild-type protein
Chain of GDP-bound HRAS wild-type protein (P01112 whole entry): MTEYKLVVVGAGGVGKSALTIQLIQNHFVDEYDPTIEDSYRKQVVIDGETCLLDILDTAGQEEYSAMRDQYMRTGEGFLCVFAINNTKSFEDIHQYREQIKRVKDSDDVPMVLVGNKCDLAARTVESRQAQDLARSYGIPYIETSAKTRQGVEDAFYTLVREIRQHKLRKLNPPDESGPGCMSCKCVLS

Chain of GDP-bound NRAS wild-type protein (P01111 whole entry): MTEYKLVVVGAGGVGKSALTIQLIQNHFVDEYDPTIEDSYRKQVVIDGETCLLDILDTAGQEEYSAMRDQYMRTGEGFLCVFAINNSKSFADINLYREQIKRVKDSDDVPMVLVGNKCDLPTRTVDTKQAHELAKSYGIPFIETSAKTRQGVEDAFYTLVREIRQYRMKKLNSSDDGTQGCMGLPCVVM

SMILES	NRAS/KRAS (ratio of KD value for NRAS to KD value for KRAS) [1]	IC50 [2]	Kd [3]	HRAS/KRAS (ratio of KD value for HRAS to KD value for KRAS) [4]
CCCOC[C@H]1C(=O)N[C@@H]([C@@H](C)CC)C(=O)N2CCC[C@H]2C(=O)N(C)[C@H]2C/C=C\CCN(C2=O)[C@@H](CC2CCC(F)(F)CC2)C(=O)N(C)CC(=O)N[C@@H](CCc2ccc(C(F)(F)F)c(OC)c2)C(=O)N2C[C@@H](C)C[C@H]2C(=O)N(C)C2(CCC2)C(=O)N(C)[C@@H](C2CCCC2)C(=O)N(C)[C@H](C(=O)N(C)C)CC(=O)N1C [PP2381]	A (a compound having 10 or more and less than 20 is denoted as A)	3.2 nM	0.93 nM	A (a compound having 10 or more and less than 20 is denoted as A)
CCC[C@H]1C(=O)N[C@@H]([C@@H](C)CC)C(=O)N(C)CC(=O)N(C)[C@H]2C/C=C\CCN(C2=O)[C@@H](Cc2ccc(C(F)(F)F)cc2)C(=O)N(C)CC(=O)N[C@@H](CCc2ccc(C(F)(F)F)c(OC)c2)C(=O)N2C[C@H](OCC)C[C@H]2C(=O)N(C)C2(CCC2)C(=O)N(C)[C@@H](C(CC)CC)C(=O)N(C)[C@H](C(=O)N(C)C)CC(=O)N1C [PP2382]	A (a compound having 10 or more and less than 20 is denoted as A)	4.6 nM	0.12 nM	A (a compound having 10 or more and less than 20 is denoted as A)
CCOC[C@H]1C(=O)N[C@@H]([C@@H](C)CC)C(=O)N(C)CC(=O)N(C)[C@H]2C/C=C\CCN(C2=O)[C@@H](Cc2ccc(C(F)(F)F)cc2)C(=O)N(C)CC(=O)N[C@@H](CCc2ccc(C(F)(F)F)c(OC)c2)C(=O)N2C[C@H](OCC)C[C@H]2C(=O)N(C)C2(CCC2)C(=O)N(C)[C@@H](C(CC)CC)C(=O)N(C)[C@H](C(=O)N(C)C)CC(=O)N1C [PP2383]	A (a compound having 10 or more and less than 20 is denoted as A)	5.2 nM	0.12 nM	A (a compound having 10 or more and less than 20 is denoted as A)
CC[C@H](C)[C@@H]1NC(=O)[C@H](COC)N(C)C(=O)C[C@@H](C(=O)N(C)C)N(C)C(=O)[C@H](C2CCCC2)N(C)C(=O)C2(CC(C)(C)C2)NC(=O)[C@@H]2C[C@H](C)CN2C(=O)[C@H](CCc2ccc(C(F)(F)F)c(OC)c2)NC(=O)CN(C)C(=O)[C@H](Cc2ccc(C)cc2)N2CC/C=C\C[C@@H](C2=O)N(C)C(=O)CN(C)C1=O [PP2385]	A (a compound having 10 or more and less than 20 is denoted as A)	7.8 nM	0.12 nM	B (a compound having 3 or more and less than 10 is denoted as B)
CC[C@H](C)[C@@H]1NC(=O)[C@H](COC)N(C)C(=O)C[C@@H](C(=O)N(C)C)N(C)C(=O)[C@H](C2CCCC2)N(C)C(=O)C2(CC(C)(C)C2)NC(=O)[C@@H]2C[C@H](C)CN2C(=O)[C@H](CCc2ccc(C(F)(F)F)c(OC)c2)NC(=O)CN(C)C(=O)[C@H](Cc2ccc(C)cc2)N2CC/C=C\C[C@@H](C2=O)N(C)C(=O)[C@@H]2C[C@H](C)CN2C1=O [PP2386]	A (a compound having 10 or more and less than 20 is denoted as A)	28.1 nM	1.2 nM	B (a compound having 3 or more and less than 10 is denoted as B)
CCC[C@H]1C(=O)N[C@@H]([C@@H](C)CC)C(=O)N2C[C@@H](OC)C[C@H]2C(=O)N(C)[C@H]2C/C=C\CCN(C2=O)[C@@H](Cc2ccc(C)cc2)C(=O)N(C)CC(=O)N[C@@H](CCc2ccc(C(F)(F)F)c(OC)c2)C(=O)N2C[C@@H](C)C[C@H]2C(=O)NC2(CC(C)(C)C2)C(=O)N(C)[C@@H](C2CCCC2)C(=O)N(C)[C@H](C(=O)N(C)C)CC(=O)N1C [PP2388]	A (a compound having 10 or more and less than 20 is denoted as A)	22.9 nM	0.33 nM	B (a compound having 3 or more and less than 10 is denoted as B)
CCO[C@@H]1C[C@H]2C(=O)NC3(CC(C)(C)C3)C(=O)N(C)[C@@H](C3CCCC3)C(=O)N(C)[C@H](C(=O)N(C)C)CC(=O)N(C)[C@@H](COC)C(=O)N[C@@H]([C@@H](C)CC)C(=O)N(C)CC(=O)N(C)[C@H]3C/C=C\CCN(C3=O)[C@@H](Cc3ccc(C)cc3)C(=O)N(C)CC(=O)N[C@@H](CCc3ccc(C(F)(F)F)c(Cl)c3)C(=O)N2C1 [PP2389]	A (a compound having 10 or more and less than 20 is denoted as A)	21.3 nM	0.079 nM	B (a compound having 3 or more and less than 10 is denoted as B)
CC[C@H](C)[C@@H]1NC(=O)[C@H](COC)N(C)C(=O)C[C@@H](C(=O)N(C)C)N(C)C(=O)[C@H](C2CCCC2)N(C)C(=O)C2(CC(C)(C)C2)NC(=O)[C@@H]2C[C@H](C)CN2C(=O)[C@H](CCc2ccc(C(F)(F)F)c(OC)c2)NC(=O)CN(C)C(=O)[C@H](Cc2ccc(C)cc2)N2CC/C=C\C[C@@H](C2=O)N(C)C(=O)[C@@H]2C[C@H](OC)CN2C1=O [PP2390]	A (a compound having 10 or more and less than 20 is denoted as A)	96.7 nM	0.28 nM	B (a compound having 3 or more and less than 10 is denoted as B)
CCO[C@@H]1C[C@H]2C(=O)NC3(CC(C)(C)C3)C(=O)N(C)[C@@H](C3CCCC3)C(=O)N(C)[C@H](C(=O)N(C)C)CC(=O)N(C)[C@@H](COC)C(=O)N[C@@H]([C@@H](C)CC)C(=O)N(C)CC(=O)N(C)[C@H]3C/C=C\CCN(C3=O)[C@@H](Cc3ccc(C)cc3)C(=O)N(C)CC(=O)N[C@@H](CCc3cc(F)c(C(F)(F)F)c(F)c3)C(=O)N2C1 [PP2391]	A (a compound having 10 or more and less than 20 is denoted as A)	8.9 nM	0.043 nM	A (a compound having 10 or more and less than 20 is denoted as A)
CCO[C@@H]1C[C@H]2C(=O)NC3(CC(C)(C)C3)C(=O)N(C)[C@@H](C3CCCC3)C(=O)N(C)[C@H](C(=O)N(C)CC)CC(=O)N(C)[C@@H](COC)C(=O)N[C@@H]([C@@H](C)CC)C(=O)N(C)CC(=O)N(C)[C@H]3C/C=C\CCN(C3=O)[C@@H](Cc3ccc(C)cc3)C(=O)N(C)CC(=O)N[C@@H](CCc3ccc(C(F)(F)F)c(OC)c3)C(=O)N2C1 [PP2392]	A (a compound having 10 or more and less than 20 is denoted as A)	25.4 nM	0.11 nM	A (a compound having 10 or more and less than 20 is denoted as A)
CCOC[C@H]1C(=O)N[C@@H]([C@@H](C)CC)C(=O)N(C)CC(=O)N(C)[C@H]2C/C=C\CCN(C2=O)[C@@H](Cc2ccc(C)cc2)C(=O)N(C)CC(=O)N[C@@H](CCc2ccc(C(F)(F)F)c(OC)c2)C(=O)N2C[C@H](C)C[C@H]2C(=O)NC2(CC(C)(C)C2)C(=O)N(C)[C@@H](C2CCCC2)C(=O)N(C)[C@H](C(=O)N(C)C)CC(=O)N1C [PP2393]	A (a compound having 10 or more and less than 20 is denoted as A)	28.2 nM	0.12 nM	A (a compound having 10 or more and less than 20 is denoted as A)
CCOC[C@H]1C(=O)N[C@@H]([C@@H](C)CC)C(=O)N(C)CC(=O)N(C)[C@H]2C/C=C\CCN(C2=O)[C@@H](Cc2ccc(C)cc2)C(=O)N(C)CC(=O)N[C@@H](CCc2ccc(C(F)(F)F)c(Cl)c2)C(=O)N2C[C@@H](C)C[C@H]2C(=O)NC2(CC(C)(C)C2)C(=O)N(C)[C@@H](C2CCCC2)C(=O)N(C)[C@H](C(=O)N(C)C)CC(=O)N1C [PP2394]	A (a compound having 10 or more and less than 20 is denoted as A)	8.3 nM	0.12 nM	B (a compound having 3 or more and less than 10 is denoted as B)
CCOC[C@H]1C(=O)N[C@@H]([C@@H](C)CC)C(=O)N(C)CC(=O)N(C)[C@H]2C/C=C\CCN(C2=O)[C@@H](Cc2ccc(C)cc2)C(=O)N(C)CC(=O)N[C@@H](CCc2ccc(C(F)(F)F)c(Cl)c2)C(=O)N2C[C@H](OCC)C[C@H]2C(=O)NC2(CC(C)(C)C2)C(=O)N(C)[C@@H](C2CCCC2)C(=O)N(C)[C@H](C(=O)N(C)C)CC(=O)N1C [PP2395]	A (a compound having 10 or more and less than 20 is denoted as A)	6.3 nM	0.072 nM	B (a compound having 3 or more and less than 10 is denoted as B)
CCO[C@@H]1C[C@H]2C(=O)NC3(CC(C)(C)C3)C(=O)N(C)[C@@H](C3CCCC3)C(=O)N(C)[C@H](C(=O)N(C)CC)CC(=O)N(C)[C@@H](COC)C(=O)N[C@@H]([C@@H](C)CC)C(=O)N(C)CC(=O)N(C)[C@H]3C/C=C\CCN(C3=O)[C@@H](Cc3ccc(C)cc3)C(=O)N(C)CC(=O)N[C@@H](CCc3cc(F)c(C(F)(F)F)c(F)c3)C(=O)N2C1 [PP2396]	A (a compound having 10 or more and less than 20 is denoted as A)	4.1 nM	0.069 nM	A (a compound having 10 or more and less than 20 is denoted as A)
CCOC[C@H]1C(=O)N[C@@H]([C@@H](C)CC)C(=O)N(C)CC(=O)N(C)[C@H]2C/C=C\CCN(C2=O)[C@@H](Cc2ccc(C)cc2)C(=O)N(C)CC(=O)N[C@@H](CCc2cc(F)c(C(F)(F)F)c(F)c2)C(=O)N2C[C@H](OCC)C[C@H]2C(=O)NC2(CC(C)(C)C2)C(=O)N(C)[C@@H](C2CCCC2)C(=O)N(C)[C@H](C(=O)N(C)C)CC(=O)N1C [PP2397]	A (a compound having 10 or more and less than 20 is denoted as A)	4.7 nM	0.051 nM	A (a compound having 10 or more and less than 20 is denoted as A)
